pEC50, pIC50: −log10 of the molar value.

Assay [1] deals with NFAT signaling pathway in Jurkat NFAT reporter cells. Kind of assay: Jurkat NFAT reporter assay. In kind it is cell-based. The note with it: Homo sapiens, 30 min with compound, then soluble anti-human CD3/CD28 antibody for 6 hours, luciferase readout, read-out: EC50 (Group). The method in brief:
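Results are expressed as fold change relative to stimulated, inhibitor-free cells. Stimulation was 6 h with soluble anti-human CD3/CD28 antibody after a 30-min exposure of 1×10^5 NFAT-RE luciferase Jurkat reporter cells per well to the Cbl-b inhibitor; signal read by Bio-Glo bioluminescence.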
(In a reporter assay the amount or activity of a reporter protein is the signal.)

Assay [2] addresses T1, human recombinant CBL-b (human Biotin CBL-b recombinant protein a.a. 39-426) (Homo sapiens, UniProt Q13191).
T1 construct: human Biotin CBL-b recombinant protein a.a; 39-426; Biotin (biotinylated); made in house
Kind of assay: Biochemical assay for CBL-b inhibition (ligand displacement TR-FRET). In kind it is binding. Particulars: 50 nM CBL-b, 0.3 μM Bodipy FL-Probe, read-out: IC50 (CBL-b inhibition, group). The method in brief: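 Ligand-displacement TR-FRET: 0.3 μM Bodipy FL probe competes with compound for 50 nM biotin-CBL-b (aa 39-426) after a 60 min RT compound pre-incubation; terbium-streptavidin detection, 60 min each step. Dose-response sigmoidal fitting gave IC50 and % maximum inhibition.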
For orientation: Time-resolved FRET reads energy transfer from a long-lived donor to a nearby acceptor.

T1 sequence (Q13191 39-426): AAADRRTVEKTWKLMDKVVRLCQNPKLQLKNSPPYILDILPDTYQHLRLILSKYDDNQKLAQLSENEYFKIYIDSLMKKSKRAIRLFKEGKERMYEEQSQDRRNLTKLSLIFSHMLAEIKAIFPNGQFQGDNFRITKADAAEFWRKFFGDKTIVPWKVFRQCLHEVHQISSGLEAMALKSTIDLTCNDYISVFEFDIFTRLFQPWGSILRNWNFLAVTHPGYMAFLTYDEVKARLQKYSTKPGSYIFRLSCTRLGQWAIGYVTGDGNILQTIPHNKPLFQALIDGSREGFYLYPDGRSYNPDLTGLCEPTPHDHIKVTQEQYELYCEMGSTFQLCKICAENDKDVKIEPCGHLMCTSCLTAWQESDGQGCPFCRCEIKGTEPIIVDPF

With `CC(NCC1CC1(F)F)c1cc(Cl)nc(N2Cc3ccc(C4(Cc5nncn5C)COC4)cc3C2=O)c1` (stereo not drawn) [Compound 199, 2-(6-Chloro-4-(1-(((2,2-difluorocyclopropyl)methyl)amino)ethyl)pyridin-2-yl)-6-(3-((4-methyl-4H-1,2,4-triazol-3-yl)methyl)oxetan-3-yl)isoindolin-1-one], the pEC50 (commonly the negative decadic logarithm of the EC50, by convention in mol/L) in assay [1] is over 6.52. Further, the pIC50 (as a rule, the IC50 on a negative log10 scale, so that one unit is a factor of ten) in assay [2] is over 7.10.
For `C[C@H](NCc1cc(Cl)nc(N2Cc3ccc(C4(Cc5nncn5C)COC4)cc3C2=O)c1)C1CC1` (single isomer, unassigned) [Compound 223], in that order: over 6.52 and over 7.10.
`Cc1cc(CNCC(C)C)cc(N2Cc3ccc(-c4ccc(F)cc4-c4nncn4C)cc3C2=O)n1` [Compound 305]: the pEC50 in assay [1] is over 6.52. In addition, the pIC50 in assay [2] is over 7.10.
The corresponding values for `Cc1cc(CNCC(C)(C)C)cc(N2Cc3ccc(-c4ccc(F)cc4-c4nncn4C)cc3C2=O)n1` [Compound 303] are 6.00 to 6.52 and over 7.10.
The corresponding values for `Cc1cc(CNCC2CC2(F)F)cc(N2Cc3ccc(-c4ccc(Cl)cc4-c4nncn4C)cc3C2=O)n1` (stereo not drawn) [Compound 269] are 6.00 to 6.52 and over 7.10.
As to `C[C@H](NCc1cscn1)c1cc(Cl)nc(N2Cc3ccc(C4(Cc5nncn5C)COC4)cc3C2=O)c1` (single isomer, unassigned) [Compound 218], the pEC50 in assay [1] is 6.00 to 6.52. The pIC50 in assay [2] is over 7.10.
`Cn1cnnc1CC1(c2ccc3c(c2)C(=O)N(c2cc(CNCC4(O)CCC4)cc(Cl)n2)C3)COC1` [Compound 216]: the pEC50 in assay [1] is 5.00 to 6.00. Further, the pIC50 in assay [2] is over 7.10.
The corresponding values for `Cn1cnnc1CC1(c2ccc3c(c2)C(=O)N(c2cc(CN4CC5CC5C4)cc(C(F)(F)F)n2)C3)COC1` (stereo not drawn) [Compound 71, 2-(4-((3-Azabicyclo[3.1.0]hexan-3-yl)methyl)-6-(trifluoromethyl)pyridin-2-yl)-6-(3-((4-methyl-4H-1,2,4-triazol-3-yl)methyl)oxetan-3-yl)isoindolin-1-one] are 5.00 to 6.00 and 5.30 to 6.52.
Take `Cn1cnnc1CC1(c2ccc3c(c2)C(=O)N(c2cc(CN4CCCC(F)C4)cc(C(F)(F)F)n2)C3)COC1` (stereo not drawn) [Compound 33, 2-(4-((3-Fluoropiperidin-1-yl)methyl)-6-(trifluoromethyl)pyridin-2-yl)-6-(3-((4-methyl-4H-1,2,4-triazol-3-yl)methyl)oxetan-3-yl)isoindolin-1-one]: the pEC50 in assay [1] is 5.00 to 6.00. In assay [2], the pIC50 is 5.30 to 6.52.
For `C[C@H]1C[C@H](C)CN(Cc2cc(Cl)nc(N3Cc4ccc(C5(Cc6nncn6C)COC5)cc4C3=O)c2)C1` [Compound 60, 2-(6-Chloro-4-(((3S,5S)-3,5-dimethylpiperidin-1-yl)methyl)pyridin-2-yl)-6-(3-((4-methyl-4H-1,2,4-triazol-3-yl)methyl)oxetan-3-yl)isoindolin-1-one], in that order: over 6.52 and over 7.10.
In the case of `C[C@@H]1CN(Cc2cc(N3Cc4ccc(C5(Cc6nncn6C)COC5)cc4C3=O)nc(C(F)(F)F)c2)CCO1` [Compound 46, (R)-6-(3-((4-Methyl-4H-1,2,4-triazol-3-yl)methyl)oxetan-3-yl)-2-(4-((2-methyl-morpholino)methyl)-6-(trifluoromethyl)pyridin-2-yl)isoindolin-1-one], the pEC50 in assay [1] is 5.00 to 6.00. In assay [2], the pIC50 was 5.30 to 6.52.
The corresponding values for `Cn1cnnc1CC1(c2ccc3c(c2)C(=O)N(c2cc(CN4CCC(F)(F)CC4)cc(C(F)(F)F)n2)C3)COC1` [Compound 48, 2-(4-((4,4-Difluoropiperidin-1-yl)methyl)-6-(trifluoromethyl)pyridin-2-yl)-6-(3-((4-methyl-4H-1,2,4-triazol-3-yl)methyl)oxetan-3-yl)isoindolin-1-one] are 6.00 to 6.52 and 6.52 to 7.10.
As for `Cn1cnnc1CC1(c2ccc3c(c2)C(=O)N(c2cc(CN4CCC[C@H](C(F)(F)F)C4)cc(C(F)(F)F)n2)C3)COC1` [Compound 27, (S)-6-(3-((4-Methyl-4H-1,2,4-triazol-3-yl)methyl)oxetan-3-yl)-2-(6-(trifluoro-methyl)-4-((3-(trifluoromethyl)piperidin-1-yl)methyl)pyridin-2-yl)isoindolin-1-one], the pEC50 in assay [1] is over 6.52. In addition, the pIC50 in assay [2] was over 7.10.
For `Cc1nc(N2Cc3ccc(-c4ccc(F)cc4-c4nncn4C)cc3C2=O)cc(CNCC2CC2)c1F` [Compound 261, 2-(4-(((Cyclopropylmethyl)amino)methyl)-5-fluoro-6-methylpyridin-2-yl)-6-(4-fluoro-2-(4-methyl-4H-1,2,4-triazol-3-yl)phenyl)isoindolin-1-one], in that order: 5.00 to 6.00 and over 7.10.
The corresponding values for `C[C@H](NCc1cc(Cl)nc(N2Cc3ccc(-c4ccc(Cl)cc4-c4nncn4C)cc3C2=O)c1)C1CC1` (single isomer, unassigned) [Compound 109, 6-(4-Chloro-2-(4-methyl-4H-1,2,4-triazol-3-yl)phenyl)-2-(6-chloro-4-(((1-cyclo-propylethyl)amino)methyl)pyridin-2-yl)isoindolin-1-one] are over 6.52 and over 7.10.
`Cn1cnnc1CC1(c2ccc3c(c2)C(=O)N(c2cc(CNCC4CCCO4)cc(Cl)n2)C3)COC1` (stereo not drawn) [Compound 188, 2-(6-Chloro-4-((((tetrahydrofuran-2-yl)methyl)amino)methyl)pyridin-2-yl)-6-(3-((4-methyl-4H-1,2,4-triazol-3-yl)methyl)oxetan-3-yl)isoindolin-1-one]: in assay [1], the pEC50 is 6.00 to 6.52. In assay [2], the pIC50 was over 7.10.
With `C=Cc1cc(CN2CCC[C@H](C)C2)cc(N2Cc3ccc(C4(Cc5nncn5C)COC4)cc3C2=O)c1` [Compound 9, (S)-6-(3-((4-Methyl-4H-1,2,4-triazol-3-yl)methyl)oxetan-3-yl)-2-(3-((3-methyl-piperidin-1-yl)methyl)-5-vinylphenyl)isoindolin-1-one], the pEC50 in assay [1] was 6.00 to 6.52. Also, the pIC50 in assay [2] was 6.52 to 7.10.
The corresponding values for `C[C@H](Cc1nncn1C)c1ccc2c(c1)C(=O)N(c1cc(CNCC3CCC3)cc(Cl)n1)C2` (single isomer, unassigned) [Compound 170] are over 6.52 and over 7.10.
The corresponding values for `COCCNCc1cc(C)nc(N2Cc3ccc(-c4ccc(F)cc4-c4nncn4C)cc3C2=O)c1` [Compound 302, 6-(4-Fluoro-2-(4-methyl-4H-1,2,4-triazol-3-yl)phenyl)-2-(4-(((2-methoxyethyl)-amino)methyl)-6-methylpyridin-2-yl)isoindolin-1-one] are 6.00 to 6.52 and over 7.10.
For `C[C@H]1CCCN(Cc2cc(N3Cc4ccc(C5(Cc6nncn6C)COC5)cc4C3=O)cc3occc23)C1` [Compound 94, (S)-6-(3-((4-Methyl-4H-1,2,4-triazol-3-yl)methyl)oxetan-3-yl)-2-(4-((3-methyl-piperidin-1-yl)methyl)benzofuran-6-yl)isoindolin-1-one], in assay [1], the pEC50 was 6.00 to 6.52. Further, the pIC50 in assay [2] is over 7.10.
The corresponding values for `Cc1cc(CNCC2CCC2)cc(N2Cc3ccc(-c4ccc(F)cc4-c4nncn4C)cc3C2=O)n1` [Compound 134, 2-(4-(((Cyclobutylmethyl)amino)methyl)-6-methylpyridin-2-yl)-6-(4-fluoro-2-(4-methyl-4H-1,2,4-triazol-3-yl)phenyl)isoindolin-1-one] are over 6.52 and over 7.10.
The corresponding values for `Cn1cnnc1-c1cc(Cl)ccc1-c1ccc2c(c1)C(=O)N(c1cc(CNCC3CC3)cc(C(F)(F)F)n1)C2` [Compound 132, 6-(4-Chloro-2-(4-methyl-4H-1,2,4-triazol-3-yl)phenyl)-2-(4-(((cyclopropylmethyl)amino)methyl)-6-(trifluoromethyl)pyridin-2-yl)isoindolin-1-one] are over 6.52 and over 7.10.
The corresponding values for `Cn1cnnc1CC1(c2ccc3c(c2)C(=O)N(c2cc(CNCC4CCC4)cc(Cl)n2)C3)CCC1` [Compound 168] are over 6.52 and over 7.10.
On to `Cc1nc(N2Cc3ccc(C4(Cc5nncn5C)COC4)cc3C2=O)cc(CNCC2CC2)c1F` [Compound 198], for which the pEC50 in assay [1] is 5.00 to 6.00. In addition, the pIC50 in assay [2] was over 7.10.
The corresponding values for `CC(Cc1nncn1C)c1ccc2c(c1)C(=O)N(c1cc(CN3C[C@H](C)C[C@H](C)C3)cc(Cl)n1)C2` (stereo partly drawn) [Compound 84, 2-(6-Chloro-4-(((3S,5R)-3,5-dimethylpiperidin-1-yl)methyl)pyridin-2-yl)-6-(1-(4-methyl-4H-1,2,4-triazol-3-yl)propan-2-yl)isoindolin-1-one] are 6.00 to 6.52 and 6.52 to 7.10.
In the case of `COc1ccc(-c2ccc3c(c2)C(=O)N(c2cc(CNCC4CC4)cc(C)n2)C3)c(-c2nncn2C)c1` [Compound 273, 2-(4-(((Cyclopropylmethyl)amino)methyl)-6-methylpyridin-2-yl)-6-(4-methoxy-2-(4-methyl-4H-1,2,4-triazol-3-yl)phenyl)isoindolin-1-one], the pEC50 in assay [1] is 5.00 to 6.00. The pIC50 in assay [2] was over 7.10.
For `C[C@@H](NC[C@@H]1CCCO1)c1cc(Cl)nc(N2Cc3ccc(C4(Cc5nncn5C)COC4)cc3C2=O)c1` (single isomer, unassigned) [Compound 219], in that order: over 6.52 and over 7.10.

The record behind these values is patent US20260226073A1 (AURIGENE ONCOLOGY LIMITED, priority 2023, published 2026).
